Experimental data: patent US20070015735A1, “Water-dispersible carotenoids, including analogs and derivatives” (priority 2005, published 2007)

Format: physicochemical
Details: 2 h
Experimental: 30.13 mg of 106 was added to 1 mL USP-purified water. The sample was rotated for 2 h and then centrifuged for 5 min. […] A 125 μL aliquot of the solution was then diluted to 25 mL. The sample was analyzed by UV/Vis spectroscopy at 436 nm, and the absorbance was compared to a standard curve compiled from four standards of known concentration. […] Slight error may have been introduced by the small size of the original aliquot. […] The sample was rotated for 2 h and then centrifuged for 5 min. […] A 125 μL aliquot of the solution was then diluted to 25 mL. The sample was analyzed by UV/Vis spectroscopy at 411 nm, and the absorbance was compared to a standard curve compiled from four standards of known concentration. […] Slight error may have been introduced by the small size of the original aliquot.

β,ε-Carotenyl 3,3′-disuccinate sodium salt [compound 106]
Aqueous dispersibility (concentration of the original supernatant): 2.85 mg/mL
